One data set deals with rats. The data set can be described thus: Antipyretic activity, E. coli suspension as pyrogen. It is filed as in vivo. The note with it: in °C (unit assumed). The method, then:
Rats are administered with sterilized E. coli suspension as a pyrogen. Each group of rats are administered with a prodrug compounds or parent compounds at a dosage specified below. The prodrug compounds are administered either orally or transdermally. The parent compounds are administered orally.

For another data set, the system named is rat. The note with it: rats.
A further data set has as its system human skin tissue. The note with it: pH 7.4.
The next data set relates to mice. The data set can be described thus: Analgesic activity, acetic acid writhing. It is filed as in vivo. The procedure:
The prodrug compounds are administered either transdermally or orally. The parent compounds are administered orally. The number of writhing that occurred when mice are administered the acetic acid solution are counted, and the rate of inhibition based on the control group which was not pretreated with any test compounds is calculated. […] The A group is the control group.
(In general: Writhing tests count abdominal constrictions after an irritant is injected.)

Data set [1] can be described thus: Plasma levels after transdermal administration to hairless mice. It counts as in vivo. The following applies: mouse, in vivo. The method, then:
Tested compounds (20% solution or suspension in 1 mL isopropanol) are administered transdermally to the skin of intact hairless mice. The plasma levels of the parent compounds are determined by HPLC.

[2] abbreviates: 50 mg/kg transdermally, 30 min before acetic acid.
[3] abbreviates: 100 mg/kg transdermally, 30 min before acetic acid.
Setting [4] is: 50 mg/kg orally, 30 min before acetic acid.
The mark [5] stands for this setting: 100 mg/kg orally, 30 min before acetic acid.
Where [6] appears, read: 100 mg/kg transdermally, 60 minutes before acetic acid.
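Throughout, for LD50 of HPP: acute toxicity in rats expressed as LD50, determined for both prodrugs and their parent compounds.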

As for `CC(=O)O.CCN(CC)CCOC(=O)C(C)c1cccc(Oc2ccccc2)c1` (centres unmarked) [diethylaminoethyl 2-(3-phenoxyphenyl) propionate.AcOH], in the data set on rats (50 mg/kg transdermally), the “body temperature, t = 0 min” value worked out at 37.28 ± 0.06; the “body temperature, t = 90 min” value came to 36.65 ± 0.06; the “body temperature, t = 180 min” value is on record as 36.58 ± 0.08; the “body temperature, t = 270 min” value is listed as 36.56 ± 0.07. The “LD50 of HPP” value in the data set on rat was found to be 1500 mg/kg. Also, the “In vitro penetration rate (apparent flux), prodrug compounds” value (from here on “In vitro penetration rate”) in the data set on human skin tissue was 1250 μg/cm^2/h. In the data set on mice (setting [2]), the “% (rate of writhing inhibition)” value was 60% and the “No. of Writhing” value amounted to 14.0. In data set [1], the “Peak plasma concentration of parent compound after prodrug compound” value (“Peak plasma concentration” below) is listed as 20 mg/L and the “t, time to peak plasma level of parent compound after prodrug compound” value (from here on “t, time to peak plasma level”) worked out at 40 min.
With `CC(=O)O.CCN(CC)CCOC(=O)C(C)c1ccc2oc(-c3ccc(Cl)cc3)nc2c1` (stereo not drawn) [diethylaminoethyl 2-(4-chlorophenyl)-α-methyl-5-benzoxazoleacetate.AcOH], in the data set with rats (100 mg/kg transdermally), the “body temperature, t = 0 min” value amounted to 37.25 ± 0.07; the “body temperature, t = 90 min” value is listed as 36.82 ± 0.06; the “body temperature, t = 180 min” value was found to be 36.70 ± 0.05; the “body temperature, t = 270 min” value amounted to 36.50 ± 0.08. For the same molecule, in the data set with rat, the “LD50 of HPP” value was determined as 1300 mg/kg. For the same molecule, the “In vitro penetration rate” value in the data set with human skin tissue is listed as 4000 μg/cm^2/h. In addition, in the data set with mice (setting [3]), the “% (rate of writhing inhibition)” value amounted to 51% and the “No. of Writhing” value is 17.1. Moreover, in data set [1], the “Peak plasma concentration” value stood at 2000 mg/L and the “t, time to peak plasma level” value was 50 min.
Regarding `CC(=O)O.CCN(CC)CCOC(=O)C(C)c1ccc2cc(OC)ccc2c1` (centres unmarked) [diethylaminoethyl 2-(6-methoxy-2-naphthyl)propionate.AcOH], in the data set on rats (100 mg/kg transdermally), the “body temperature, t = 0 min” value is given as 37.33 ± 0.07; the “body temperature, t = 90 min” value was found to be 36.80 ± 0.06; the “body temperature, t = 180 min” value was found to be 36.72 ± 0.05; the “body temperature, t = 270 min” value is given as 36.50 ± 0.08. Moreover, in the data set on rat, the “LD50 of HPP” value came out at 2200 mg/kg. Also, the “In vitro penetration rate” value in the data set on human skin tissue was 3500 μg/cm^2/h. In the data set on mice (setting [3]), the “% (rate of writhing inhibition)” value is 51% and the “No. of Writhing” value worked out at 17.1. In data set [1], the “Peak plasma concentration” value is recorded as 2000 mg/L and the “t, time to peak plasma level” value is 50 min.
With `CC(=O)O.CCN(CC)CCOC(=O)C(C)c1ccc(CC(C)C)cc1` (centres unmarked) [diethylaminoethyl 2-(ρ-isobutylphenyl) propionate.AcOH], the “body temperature, t = 0 min” value with rats (100 mg/kg orally) came out at 37.22 ± 0.07; in the data set on rats (100 mg/kg transdermally), 37.27 ± 0.06; with rats (150 mg/kg orally), 37.24 ± 0.08; with rats (150 mg/kg transdermally) it was 37.26 ± 0.05. In addition, the “body temperature, t = 90 min” value in the data set on rats (100 mg/kg orally) worked out at 36.40 ± 0.06; in the data set with rats (100 mg/kg transdermally), 36.30 ± 0.06; in the data set with rats (150 mg/kg orally) it was 36.30 ± 0.05; with rats (150 mg/kg transdermally), 36.25 ± 0.05. For the same molecule, the “body temperature, t = 180 min” value stood at 36.50 ± 0.05 in the data set on rats (100 mg/kg orally), 36.35 ± 0.08 with rats (100 mg/kg transdermally), 36.35 ± 0.07 with rats (150 mg/kg orally) and 36.30 ± 0.07 in the data set on rats (150 mg/kg transdermally). In addition, the “body temperature, t = 270 min” value in the data set on rats (100 mg/kg orally) amounted to 36.45 ± 0.08; with rats (100 mg/kg transdermally), 36.31 ± 0.07; in the data set with rats (150 mg/kg orally) it was 36.38 ± 0.08; in the data set with rats (150 mg/kg transdermally), 36.20 ± 0.05. In addition, in the data set on rat, the “LD50 of HPP” value was determined as 1800 mg/kg. Moreover, in the data set on human skin tissue, the “In vitro penetration rate” value is listed as 1250 μg/cm^2/h. In addition, the “% (rate of writhing inhibition)” value is 59% in the data set on mice (setting [4]), 61% in the data set on mice (setting [2]), 70% in the data set with mice (setting [5]) and 71% in the data set on mice (setting [3]). For the same molecule, the “No. of Writhing” value in the data set on mice (setting [4]) was found to be 14.1; with mice (setting [2]), 13.3; in the data set on mice (setting [5]), 10.2; in the data set on mice (setting [3]) it was 9.8. Besides, in data set [1], the “Peak plasma concentration” value amounted to 120 mg/L. The “t, time to peak plasma level” value in data set [1] is given as 30 min.
`CC(=O)O.CCN(CC)CCOC(=O)c1cccnc1Nc1cccc(C(F)(F)F)c1C` [diethylaminoethyl 2-[[2-methyl-3-(trifluoromethyl)phenyl]amino]-3-pyridinecarboxylate.AcOH]: in the data set on rats (100 mg/kg transdermally), the “body temperature, t = 0 min” value is on record as 37.23 ± 0.06; the “body temperature, t = 90 min” value is on record as 36.69 ± 0.06; the “body temperature, t = 180 min” value is on record as 36.52 ± 0.08; the “body temperature, t = 270 min” value was determined as 36.40 ± 0.07. The “LD50 of HPP” value in the data set on rat stood at 1100 mg/kg. In addition, the “In vitro penetration rate” value in the data set with human skin tissue is given as 1700 μg/cm^2/h. In the data set on mice (setting [6]), the “% (rate of writhing inhibition)” value is listed as 55% and the “No. of Writhing” value is given as 15.7. In data set [1], the “Peak plasma concentration” value is reported as 20 mg/L and the “t, time to peak plasma level” value is listed as 50 min.
Turning to `CC(=O)O.CCN(CC)CCOC(=O)c1cccnc1Nc1cccc(C(F)(F)F)c1` [diethylaminoethyl 2-[[3-(trifluoromethyl)phenyl]amino]-3-pyridinecarboxylate.AcOH], in the data set with rats (100 mg/kg transdermally), the “body temperature, t = 0 min” value came out at 37.25 ± 0.07; the “body temperature, t = 90 min” value turned out to be 36.82 ± 0.06; the “body temperature, t = 180 min” value is listed as 36.70 ± 0.05; the “body temperature, t = 270 min” value worked out at 36.50 ± 0.08. For the same molecule, in the data set on rat, the “LD50 of HPP” value was found to be 750 mg/kg. Also, in the data set on human skin tissue, the “In vitro penetration rate” value came out at 1800 μg/cm^2/h. In the data set on mice (setting [6]), the “% (rate of writhing inhibition)” value was found to be 57% and the “No. of Writhing” value worked out at 15.2. Moreover, in data set [1], the “Peak plasma concentration” value was found to be 20 mg/L and the “t, time to peak plasma level” value stood at 50 min.
`CC(=O)O.CCN(CC)CCOC(=O)Cc1cccc(C(=O)c2ccccc2)c1N` [diethylaminoethyl 2-amino-3-benzoylbenzeneacetate.AcOH]: in the data set on rats (100 mg/kg transdermally), the “body temperature, t = 0 min” value turned out to be 37.22 ± 0.06; the “body temperature, t = 90 min” value turned out to be 36.65 ± 0.05; the “body temperature, t = 180 min” value was 36.62 ± 0.08; the “body temperature, t = 270 min” value came to 36.58 ± 0.07. In the data set on rat, the “LD50 of HPP” value is 1000 mg/kg. Moreover, in the data set with human skin tissue, the “In vitro penetration rate” value is listed as 800 μg/cm^2/h. For the same molecule, in the data set with mice (setting [3]), the “% (rate of writhing inhibition)” value is 61% and the “No. of Writhing” value was 13.8. Besides, in data set [1], the “Peak plasma concentration” value was 20 mg/L and the “t, time to peak plasma level” value was determined as 50 min.
For `CC(=O)O.CCN(CC)CCOC(=O)C(C)c1ccc(N2Cc3ccccc3C2=O)cc1` (stereo not drawn) [diethylaminoethyl 4-(1,3-dihydro-1-oxo-2H-isoindol-2-yl)-α-methylbenzeneacetate.AcOH], in the data set on rats (100 mg/kg transdermally), the “body temperature, t = 0 min” value turned out to be 37.28 ± 0.06; the “body temperature, t = 90 min” value is listed as 36.65 ± 0.06; the “body temperature, t = 180 min” value came to 36.58 ± 0.08; the “body temperature, t = 270 min” value amounted to 36.56 ± 0.07. For the same molecule, the “LD50 of HPP” value in the data set with rat was 3500 mg/kg. Besides, the “In vitro penetration rate” value in the data set on human skin tissue is 4200 μg/cm^2/h. For the same molecule, in the data set on mice (setting [3]), the “% (rate of writhing inhibition)” value is given as 62% and the “No. of Writhing” value came out at 13.2. For the same molecule, in data set [1], the “Peak plasma concentration” value is 2000 mg/L and the “t, time to peak plasma level” value amounted to 50 min.

(Values after US20210353579A1, “HIGH PENETRATION COMPOSITIONS AND USES THEREOF” (Techfields Pharma Co., Ltd., priority 2006, published 2021).)
